Data taken from patent US20260234187A1, “ANTIMICROBIAL PEPTIDES” (MATERIAS S.R.L., priority 2020, published 2026).
Where two headings read alike, the source gives them in different places. Where no end group is shown, it is not given here.

Key:
L. monocytogenes (LM2) = format: cell-based, Listeria monocytogenes
Procedure: (§1) The evaluation of the Minimum Bactericidal Concentration (MBC), i.e., the lowest concentration of antimicrobial agent capable of 99.9% inhibition of bacterial growth on plates, was carried out as described in Bílikova et al, (2015, Peptides 68:190-196). […] It should be noted that the peptide object of the present invention is more powerful and efficient than the peptide IDR-1018-K6 (described in patent application WO2019012158) against the pathogenic bacteria L. monocytogenes and S. typhimurium, with bactericidal concentration values 4-fold and 7-fold lower, respectively, compared to those shown by IDR-1018-K6.

[1] = format: physicochemical; set-up: α-helix (Bestsel) / β-sheet (Bestsel) / Random (Bestsel): unit not given here; details: 3 mM SDS; for Random (CONTIN-LL) / α-helix (CONTIN-LL) / β-sheet (CONTIN-LL): after a 24-hour incubation
Procedure: 0.1 g/L of RiLK1 peptide was dissolved in 10 mM concentration solutions at different pHs, in particular: glycine-HCL buffer (pH 2); sodium acetate buffer (pH 4); tris-HCL buffer (pH 7); glycine-NaOH buffer (pH 9). After a 1-hour incubation at 25° C., samples of each solution containing 3 mM SDS were prepared.

physchem = format: physicochemical; details: L or D configuration; ultrapure water, DMSO and DPBS
Procedure: The tests were carried out in three of the most common solvents used in biological applications such as: ultrapure water; DPBS (Dulbecco's Phosphate Buffered Saline), i.e., a saline buffer containing potassium chloride (KCl), monobasic potassium phosphate (KH2PO4), sodium chloride (NaCl) and dibasic sodium phosphate (Na2HPO4-7H2O) and finally in an organic solvent such as dimethylsulfoxide (DMSO).

[2] = system: Listeria monocytogenes LM2; format: cell-based; details: LM2, 6 h
Procedure: The bactericidal activity of the RiLK1 peptide was assessed against both Gram positive (Listeria monocytogenes LM2 and Staphilococcus aureus) and Gram negative (Salmonella typhimurium and Escherichia coli) pathogenic bacteria. The assessment of the concentration of the two peptides capable of inhibiting 50% of bacterial growth (IC50) was performed by the broth microdilution assay as described in Wang H X and Ng TB (2003, Peptides 24:969-972). The standard deviations and the IC50s for triplicate incubations of each plate were determined using GraphPad Prism version 6.00 (Graph-Pad Software, La Jolla California USA). All experimental conditions investigated used the plate count method to estimate the bactericidal activity of the peptides. Specifically, the numbers of colonies grown on agar plates seeded with the bacterial suspensions in the absence or presence of the individual peptide dilutions were counted and compared. The standard deviations of the triplicate incubations of each plate were determined using statistical software. A control stock suspension was prepared in which 10^3 CFUs of L. monocytogenes were inoculated in 10 ml of Half Fraser Broth and serial dilutions (100 to 0.01 μM) of the suspension were performed. […]

E. coli = format: cell-based, Escherichia coli
Procedure: as §1

In the case of RLKWVRIWRR-NH2 [RiLK1, RLKWVRIWRR], the “bactericidal concentration lower compared to IDR-1018-K6” value (L. monocytogenes (LM2); L. monocytogenes) is reported as 4 fold, the MBC (L. monocytogenes (LM2); L. monocytogenes (LM2)) is reported as 2 µM and the “Random (Bestsel)” value ([1]; pH 2, t = 0) is reported as 44.4. The “Random (DichroWeb CONTIN-LL)” value ([1]; pH 2, t = 0) was 39%, the “α-helix (Bestsel)” value ([1]; pH 2, t = 0) was 18.5 and the “α-helix (DichroWeb CONTIN-LL)” value ([1]; pH 2, t = 0) was 22%. The “β-sheet (Bestsel)” value ([1]; pH 2, t = 0) was 37, the “β-sheet (DichroWeb CONTIN-LL)” value ([1]; pH 2, t = 0) was 39% and the “Random (Bestsel)” value ([1]; pH 2, t = 24 hours) was 44.3. For the same substance, the “Random (DichroWeb CONTIN-LL)” value ([1]; pH 2, t = 24 hours) was 39%, the “α-helix (Bestsel)” value ([1]; pH 2, t = 24 hours) was 13.2 and the “α-helix (DichroWeb CONTIN-LL)” value ([1]; pH 2, t = 24 hours) was 17%. For the same substance, the “β-sheet (Bestsel)” value ([1]; pH 2, t = 24 hours) was 42.5, the “β-sheet (DichroWeb CONTIN-LL)” value ([1]; pH 2, t = 24 hours) was 44% and the “Random (Bestsel)” value ([1]; pH 4, t = 0) was 52.4. The “Random (DichroWeb CONTIN-LL)” value ([1]; pH 4, t = 0) was 36%, the “α-helix (Bestsel)” value ([1]; pH 4, t = 0) was 7.7 and the “α-helix (DichroWeb CONTIN-LL)” value ([1]; pH 4, t = 0) was 23%. For the same substance, the “β-sheet (Bestsel)” value ([1]; pH 4, t = 0) was 39.8, the “β-sheet (DichroWeb CONTIN-LL)” value ([1]; pH 4, t = 0) was 41% and the “Random (Bestsel)” value ([1]; pH 4, t = 24 hours) was 41.2. For the same substance, the “Random (DichroWeb CONTIN-LL)” value ([1]; pH 4, t = 24 hours) was 35%, the “α-helix (Bestsel)” value ([1]; pH 4, t = 24 hours) was 13.3 and the “α-helix (DichroWeb CONTIN-LL)” value ([1]; pH 4, t = 24 hours) was 24%. For the same substance, the “β-sheet (Bestsel)” value ([1]; pH 4, t = 24 hours) was 45.5, the “β-sheet (DichroWeb CONTIN-LL)” value ([1]; pH 4, t = 24 hours) was 41% and the “Random (Bestsel)” value ([1]; pH 7, t = 0) was 45.4. The “Random (DichroWeb CONTIN-LL)” value ([1]; pH 7, t = 0) was 36%, the “α-helix (Bestsel)” value ([1]; pH 7, t = 0) was 15 and the “α-helix (DichroWeb CONTIN-LL)” value ([1]; pH 7, t = 0) was 25%. For the same substance, the “β-sheet (Bestsel)” value ([1]; pH 7, t = 0) was 39.5, the “β-sheet (DichroWeb CONTIN-LL)” value ([1]; pH 7, t = 0) was 39% and the “Random (Bestsel)” value ([1]; pH 7, t = 24 hours) was 40.8. For the same substance, the “Random (DichroWeb CONTIN-LL)” value ([1]; pH 7, t = 24 hours) was 37%, the “α-helix (Bestsel)” value ([1]; pH 7, t = 24 hours) was 15.5 and the “α-helix (DichroWeb CONTIN-LL)” value ([1]; pH 7, t = 24 hours) was 19%. For the same substance, the “β-sheet (Bestsel)” value ([1]; pH 7, t = 24 hours) was 43.8, the “β-sheet (DichroWeb CONTIN-LL)” value ([1]; pH 7, t = 24 hours) was 44% and the “Random (Bestsel)” value ([1]; pH 9, t = 0) was 44.4. The “Random (DichroWeb CONTIN-LL)” value ([1]; pH 9, t = 0) was 39%, the “α-helix (Bestsel)” value ([1]; pH 9, t = 0) was 13.7 and the “α-helix (DichroWeb CONTIN-LL)” value ([1]; pH 9, t = 0) was 19%. For the same substance, the “β-sheet (Bestsel)” value ([1]; pH 9, t = 0) was 42, the “β-sheet (DichroWeb CONTIN-LL)” value ([1]; pH 9, t = 0) was 42% and the “Random (Bestsel)” value ([1]; pH 9, t = 24 hours) was 42.9. The “Random (DichroWeb CONTIN-LL)” value ([1]; pH 9, t = 24 hours) was 24%, the “α-helix (Bestsel)” value ([1]; pH 9, t = 24 hours) was 13.4 and the “α-helix (DichroWeb CONTIN-LL)” value ([1]; pH 9, t = 24 hours) was 29%. For the same substance, the “β-sheet (Bestsel)” value ([1]; pH 9, t = 24 hours) was 43.8, the “β-sheet (DichroWeb CONTIN-LL)” value ([1]; pH 9, t = 24 hours) was 47% and the “Random (CONTIN-LL)” value ([1]; Table 8: pH 2) was 39%. For the same substance, the “α-helix (CONTIN-LL)” value ([1]; Table 8: pH 2) was 22%, the “β-sheet (CONTIN-LL)” value ([1]; Table 8: pH 2) was 39% and the “Random (CONTIN-LL)” value ([1]; Table 8: pH 4) was 36%. For the same substance, the “α-helix (CONTIN-LL)” value ([1]; Table 8: pH 4) was 23%, the “β-sheet (CONTIN-LL)” value ([1]; Table 8: pH 4) was 41% and the “Random (CONTIN-LL)” value ([1]; Table 8: pH 7) was 36%. For the same substance, the “α-helix (CONTIN-LL)” value ([1]; Table 8: pH 7) was 25%, the “β-sheet (CONTIN-LL)” value ([1]; Table 8: pH 7) was 39% and the “Random (CONTIN-LL)” value ([1]; Table 8: pH 9) was 39%. The “α-helix (CONTIN-LL)” value ([1]; Table 8: pH 9) was 19%, the “β-sheet (CONTIN-LL)” value ([1]; Table 8: pH 9) was 42% and the “maximum concentration completely dissolved” value (physchem) was at most 10 mg/mL. It also gave an IC50 [2] of 460 nM and an MBC (E. coli) of 2 µM.
